Reference: patent US11021526B2, “DSG2-derived peptides” (Asclepiumm Taiwan Co., Ltd, priority 2016, dated 2021)
Entries after “also recorded” stand apart in the source; their conditions may differ. Where a SMILES comes first, the peptide text is derived from it.

Legend:
[1] = tested on: rat eyes choroidal neovascularization; test: Rat laser-induced choroidal neovascularization model; format: in vivo; conditions: injected into vitreous body, 14 days after laser; Eylea 200 μg/5 μl, SEQ97 500 μg/5 μl; n=10
Experimental: The animals were fully anesthetized with a mixture of ketamine hydrochloride/xylazine hydrochloride (7:1, v/v) by intramuscular injection into the thigh muscle at 1 mL/kg. Mydrin®-P ophthalmic solution (Santen Pharmaceutical Co., Ltd.) was instilled into the eyes to dilate the pupils. Laser (wavelength: 532 nm) was used to irradiate the right eye of each animal using a Slit Lamp SL-130 (Carl Zeiss Meditec AG) and a Multicolor Laser Photocoagulator MC-300 (NIDEK Co., Ltd.). Then the peptide dosing formulation was injected into the vitreous body of the right eye using a microsyringe (MS-N10, Ito Corporation) and a 33 G needle (Ito Corporation). Fourteen days after laser irradiation, a 4% FITC-dextran solution was administered into the tail vein in a volume of 1 mL/animal. Then the animals were euthanized by overdose of an anesthetic. The eyeballs were removed and fixed in 4% paraformaldehyde-phosphate buffer for 12-24 hours. Choroidal flat mounts were prepared under a stereoscopic microscope (EZ-4, Leica Microsystems). […]
Eyes of rats were irradiated by 532 nm wave length laser and intraveally treated with peptides (SEQ97), Eylea or PBS. […] After treatment (PBS, Eylea or SEQ97) for 14 days, the photographs of the choroidal neovascularization sites were taken and quantified with ImageJ software. […]

[2] = tested on: human umbilical vein endothelial cells (HUVEC); test: HUVEC tube formation assay (angiogenesis assay); format: cell-based; conditions: for inhibition of angiogenesis / HUVEC tube structure: HUVEC on Matrigel, five-hour incubation; for collapse of volume of tube structure compared to PBS-treated control: matrigel induced vasculature of HUVEC cells, PBS-dissolved peptides
Description: Overnight starved human umbilical vein endothelial cells (HUVEC) were collected and adjusted to 1.5×10^4 cells/well (in a 96-well plate) with endothelial cell growth medium and then seeded cells on the matrigel-coated well. Different peptides and their modified forms by D-form non-nature amino acids and/or cyclization by adding N- and C-terminal Cystines; also SEQ132 is a reversal of the direction of the peptide backbone SEQ6 (retro modification): (SEQ17, SEQ78, SEQ97, MR9 DF, CMR9C, CMR9C DF, MR9D6 DF, CMR9D6C DF and SEQ132) or control PBS were added into well for five-hour incubation at 37° C. Each well was photographed at ×40 magnification through an upright microscope. Total tube lengths were quantified by using ImageJ software.

[3] = tested on: MDCK cells; test: EMT assay (HGF-induced EMT, inter-nuclear distance); conditions: HGF 2.5 ng/ml
Experimental: MDCK cells (800 cells/well) were seeded onto 96-well plate and incubated in 37° C. and 5% CO2 to become 10% sub-confluence. Then EMT was triggered by adding culture medium with cell scattering factor HGF (R&D system, 2.5 ng/ml) and tested peptides were added (SEQ2˜SEQ31) to block EMT. To measure the inter-nuclear distance, random images were captured at ×50 magnification using an upright microscope. The inter-nuclear distance was measured from the center of one nucleus to that of a neighboring/adjacent nucleus. The distance between the two nuclei was measured by using ImageJ software.

Compound | inhibition of angiogenesis / HUVEC tube structure [2] | inhibition of HGF (hepatocyte growth factor) induced EMT (epithelial-mesenchymal transition) [3] | also measured
Eylea: Eylea, comparator treatment (200 μg/5 μl) in the rat choroidal neovascularization model [reference compound] | – | – | inhibition of rat eyes choroidal neovascularization [1]: significantly inhibit
VSTSEQRAIKWKEAM [SEQ132] | strong efficacy to inhibit HUVEC tube structure | – | –
CC[C@H](C)[C@H](NC(=O)[C@H](CCCCN)NC(=O)[C@H](Cc1c[nH]c2ccccc12)NC(=O)[C@H](CCCCN)NC(=O)[C@H](CCC(=O)O)NC(=O)[C@H](C)NC(=O)[C@@H](N)CCSC)C(=O)N[C@@H](C)C(=O)N[C@@H](CCCNC(=N)N)C(=O)N[C@@H](CCC(N)=O)C(=O)N[C@@H](CCC(=O)O)C(=O)O [SEQ15, MAEKWKIARQE] (H-MAEKWKIARQE-OH; N-terminus and C-terminus assumed) | – | excellent inhibiting abilities similar to SEQ6 | –
MAEKWKIARDDDDDD [MR9D6 DF] | – | – | collapse of volume of tube structure compared to PBS-treated control [2]: 95%
CMAEKWKIARDDDDDDC [CMR9D6C DF] | – | – | collapse of volume of tube structure compared to PBS-treated control [2]: 95%
RRRRRRRMAEKWKIAR [SEQ78] | inhibit angiogenesis | – | –
CC[C@H](C)[C@H](NC(=O)[C@@H](NC(=O)[C@H](CO)NC(=O)[C@H](Cc1ccccc1)NC(=O)[C@@H](N)CO)C(C)C)C(=O)N[C@@H](CC(=O)O)C(=O)N[C@@H](CCCCN)C(=O)N1CCC[C@H]1C(=O)N1CCC[C@H]1C(=O)NCC(=O)N[C@@H](CCSC)C(=O)N[C@@H](C)C(=O)N[C@@H](CCC(=O)O)C(=O)N[C@@H](CCCCN)C(=O)N[C@@H](Cc1c[nH]c2ccccc12)C(=O)O [SEQ5, SFSVIDKPPGMAEKW] (H-SFSVIDKPPGMAEKW-OH; N-terminus and C-terminus assumed) | – | inhibited | –
MAEKWKIARDDDDDD [SEQ97] | inhibit angiogenesis | – | inhibition of rat eyes choroidal neovascularization [1]: significantly inhibit
CC[C@H](C)[C@H](NC(=O)[C@H](CCCCN)NC(=O)[C@H](Cc1c[nH]c2ccccc12)NC(=O)[C@H](CCCCN)NC(=O)[C@H](CCC(=O)O)NC(=O)[C@H](C)NC(=O)[C@@H](N)CCSC)C(=O)N[C@@H](C)C(=O)N[C@@H](CCCNC(=N)N)C(=O)O [SEQ17, MAEKWKIAR] (H-MAEKWKIAR-OH; N-terminus and C-terminus assumed) | – | advantageous effect in the inhibition of EMT; also recorded: excellent inhibiting abilities similar to SEQ6 | –
CC[C@H](C)[C@H](NC(=O)[C@H](CC(C)C)NC(=O)[C@H](Cc1ccccc1)NC(=O)[C@H](CCC(N)=O)NC(=O)[C@@H](NC(=O)[C@H](CCC(=O)O)NC(=O)[C@H](CO)NC(=O)[C@H](CCCNC(=N)N)NC(=O)CNC(=O)[C@H](CC(C)C)NC(=O)[C@H](CCCCN)NC(=O)[C@H](CCCCN)NC(=O)[C@@H](N)CCC(=O)O)[C@@H](C)CC)C(=O)N[C@@H](CO)C(=O)N[C@@H](CC(=O)O)C(=O)O [SEQ8, EKKLGRSEIQFLISD] (H-EKKLGRSEIQFLISD-OH; N-terminus and C-terminus assumed) | – | inhibited | –
